Patent publication US5561131A, “Defaunation method” (Mallinckrodt Veterinary, Inc., priority 1991, dated 1996)

How the values were obtained:
[1] = system: rumen ciliate protozoa; test: In vitro activity of defaunation compounds against rumen ciliate protozoa; assay type: cell-based; details: 39° C., anaerobic, 3 hours, tested at 50, 150, 250 and 500 ppm
Description: Compounds of Table 1 were tested for their toxicity against rumen ciliate protozoa by firstly isolating protozoa from rumen liquor collected from faunated animals. The rumen liquor was then centrifuged at 500 g for five minutes and the supernatant discarded. The protozoal-rich sediment was then reconstituted in McDougal's artificial saliva. Residual bacteria were suppressed by using a combination of two antibiotics at low concentration. Nitrogen and energy substrate was optimized for the protozoal preparation. At all times the protozoal preparation was maintained at 39° C. and kept anaerobic.
Sixty milligrams of each the compounds of Table 1 were dissolved in 1.2 ml of dimethyl sulphoxide and dispersed in triplicate to achieve a final concentration of 50, 150, 250 and 500 ppm. Ten milliliters of protozoal preparation was then added to each tube. After every second compound, control tubes were included which contained everything except for compound. The tubes, to which a 5 ml glass syringe was attached, were then incubated for 3 hours in a water bath at 39° C. The production of gas causes the syringe plunger to be displaced.
At the end of the incubation period, the volume of gas produced was recorded and the viability of the protozoa assessed visually using a microscope. The toxicity of the compounds to protozoa was assessed from both the reduction in gas produced relative to the control and by direct observation of the protozoa for movement of cilia.

[2] = system: rumen bacteria; test: In vitro bacterial gas inhibition; assay type: cell-based; details: at the concentration known to kill protozoa
Description: Compounds of Table 1 were also tested for toxicity bacteria. This involved removing protozoa from rumen liquor by centrifugation at 2,000 g for 5 minutes and collecting the bacterial rich supernatant. Nitrogen and energy substrate was added to the bacterial preparation which was then dispensed in triplicate 10 ml volumes over the same range of compound concentrations (50, 150, 250 and 500 ppm.) referred to in Example 2. Control tubes were placed after every second compound to enable the inhibition of gas resulting from the compound to be assessed. […] It can be seen that these compounds are selective in their mode of action, in that they are more toxic to protozoa than bacteria.

[3] = system: mice; test: Mouse safety assessment; assay type: in vivo; details: oral gavage, 830, 415 and 217 mg/kg, observed for 2 days
Description: Compounds of Table 1 chosen for testing in sheep were first tested in mice for signs of toxicity. Because sheep are approximately 5 times more sensitive than mice to compounds dosed orally, the dose rates applied to mice were 5 times greater than the target dose rate of 500 ppm. in rumen liquor (83 mg/kg live weight) used for sheep. Each compound was screened at three different dose levels, high (830 mg/kg), medium (415 mg/kg) and low (217 mg/kg).
252 mg of compound was used for dilution into a high medium and low dose rate. 252 mg of compound was mixed with 3 ml of G1284 solution (4% w/v ethoxylated castor oil and 0.05% w/v simethicone), to form the high dose composition. The medium dose composition was formed by diluting 1.5 ml of the high dose with 1.5 ml of G1284 solution. The low dose composition was formed by diluting 1.5 ml of the medium dose with 1.5 ml of G1284 solution. Before the high dose could be diluted it was first manually ball milled in an effort to produce a fine suspension of the compound.
All mice were weighed before dosing to calculate the appropriate dose rate. The calculation for dose rate was: [formula]
Each mouse was dosed using the Gavage method. With this method the mouse is dosed orally by way of an angled hypodermic needle (18 g) with a smooth spherical end. It is gently placed down the esophagus. All care must be taken not to force the needle and injure the esophagus or dose into the lungs.
Observations were made at 10, 30, 60 and 120 minutes after dosing, then every 1 or 2 hours for the first 6 hours.
Mice were usually observed for 2 days.
Typically, few compounds fell within the poor classification. The majority of compounds tested were either in the fair or good classification.

[4] = system: rumen bacteria; test: Bacterial viability in sheep after administering defaunation compounds; assay type: in vivo; details: gas production one week after dosing vs pre-dosing
Description: In order to establish what effect the compounds had on the viability of rumen bacteria, a sample of rumen liquor was collected prior to dosing of the compound. The sample was withdrawn under vacuum using a pre-warmed tube inserted into the rumen through a rumen cannula. The sample was collected in a pre-warmed (39° C.) flask, gassed with carbon dioxide and covered. Two-pre-warmed 30 ml centrifuge tubes were then filled with well mixed rumen liquor and centrifuged at 2000 rpm for 5 minutes. Half the volume of each tube was then poured into another pre-warmed tube without disturbing the sediment. Three lots of 10 ml of this rumen liquor were then pipetted into 15 ml tubes which contained 10 μL of urea solution (40% w/v and 300 μL of glucose solution (50% w/v). The urea and glucose acted as substrate for the bacteria. The tubes were then gassed with carbon dioxide, stoppered and placed in a water bath at 39° C. After 10 minutes a 5 ml glass syringe was secured into the stoppers (through which a hypodermic needle had been inserted) and the gas collected for five hours and recorded.
This bacterial viability measure was then repeated one week after dosing with each of the compounds referred to in Table 1. Defaunation compositions were prepared according to the method of Example 1. The amount of gas produced was then compared with the pre-dosing level. The criterion for classifying post-dosing bacterial viability is shown below:
Poor--reduction in post-dosing gas production relative to pre-dosing levels.
OK--post-dosing gas production the same as pre-dosing levels.
Good--increase in post-dosing gas production relative to pre-dosing levels.

[5] = system: rumen ciliate protozoa; test: Protozoal reduction in sheep; assay type: in vivo; design: concentration or dose not given beside the values; details: one week after dosing, relative to predosing numbers
Description: Defaunation compositions were prepared according to the method of Example 1.
Prior to dosing of the compound, a sample of rumen liquor (200 ml) was withdrawn to establish basal numbers of protozoa.
The sample was collected using a stomach tube, inserted into the rumen via a rumen cannula (fistulated animals) or per esophagus (intact animals). After straining the sample was well mixed using a magnetic stirrer and a 0.5 ml sample was withdrawn and added to 49.5 ml of a crystal violet stain. Protozoa were counted using a microscope and a Hawksley counting chamber.
One week after administering the compound, another rumen liquor sample was collected (as described above) and examined for the presence of protozoa. Where rumen ciliate protozoa were undetectable, a reduction or inhibition value of 100% was recorded. In general, most compounds expressed a strong inhibitory effect on protozoal populations.

[6] = Effect of defaunation compounds on feed intake of sheep; assay type: in vivo; details: after dosing vs pre-dosing intake
Description: Sheep were allowed a minimum of three weeks to adapt to their ration of 900 g of oaten chaff and 100 g of Lucerne chaff. The pre-dosing level of intake for each animal was established from the mean of five days intake immediately prior to dosing. Any effects of administering the compound on feed intake was then determined by measuring the level of feed intake after dosing.
The criteria of classifying the effect on food intake are shown below.
Poor--greater than 50% reduction in feed intake during the first week after dosing.
Fair--greater than 50% reduction in feed intake on the day following dosing but less then 50% reduction one week after dosing.
OK--transient drop in feed intake which is less than 50% on the day after dosing.
Good--No reduction in feed intake following dosing.

Clc1nc(Cl)nc(Nc2ccccc2)n1 [Compound 1]
Conc Required to Kill all Protozoa [1]: 250 ppm | Bact. Gas Inhibition at the conc. required to kill protozoa [2]: 43

Clc1ccc(Nc2nc(Cl)nc(Cl)n2)cc1 [Compound 2]
Mouse Safety Assessment [3]: Poor (death at 840 mg/kg) | Conc Required to Kill all Protozoa [1]: 150 ppm | Bact. Gas Inhibition at the conc. required to kill protozoa [2]: 38 | Bacterial Viability [4]: Good | Protozoal Reduction [5]: 100% | Feed Intake [6]: Fair

Clc1nc(Cl)nc(Nc2ccc(Br)cc2)n1 [Compound 3]
Conc Required to Kill all Protozoa [1]: 250 ppm | Bact. Gas Inhibition at the conc. required to kill protozoa [2]: 45 | Bacterial Viability [4]: Good | Protozoal Reduction [5]: 100% | Feed Intake [6]: Good

Oc1ccc(Nc2nc(Cl)nc(Cl)n2)cc1 [Compound 4]
Conc Required to Kill all Protozoa [1]: 250 ppm | Bact. Gas Inhibition at the conc. required to kill protozoa [2]: 43 | Bacterial Viability [4]: Poor | Protozoal Reduction [5]: 100% | Feed Intake [6]: Poor (greater than 50% reduction between day 2 to day 8)

COc1ccc(Nc2nc(Cl)nc(Cl)n2)cc1 [Compound 5]
Mouse Safety Assessment [3]: Good | Conc Required to Kill all Protozoa [1]: 250 ppm | Bact. Gas Inhibition at the conc. required to kill protozoa [2]: 33 | Bacterial Viability [4]: Poor | Protozoal Reduction [5]: 100% | Feed Intake [6]: Fair

Cc1ccc(Nc2nc(Cl)nc(Cl)n2)cc1 [Compound 6]
Mouse Safety Assessment [3]: Poor (death at 840 mg/kg) | Conc Required to Kill all Protozoa [1]: 150 ppm | Bact. Gas Inhibition at the conc. required to kill protozoa [2]: 40 | Bacterial Viability [4]: Okay | Protozoal Reduction [5]: 100% | Feed Intake [6]: Okay (transient drop, less than 50% at day 2)

Clc1nc(Cl)nc(Nc2ccc(Cl)c(Cl)c2)n1 [Compound 7]
Mouse Safety Assessment [3]: Fair (>2 mice sick) | Conc Required to Kill all Protozoa [1]: 250 ppm | Bact. Gas Inhibition at the conc. required to kill protozoa [2]: 30 | Bacterial Viability [4]: Poor | Protozoal Reduction [5]: 100% | Feed Intake [6]: Poor (greater than 50% reduction between day 2 to day 8)

Cc1ccccc1Nc1nc(Cl)nc(Cl)n1 [Compound 8]
Mouse Safety Assessment [3]: Good | Conc Required to Kill all Protozoa [1]: 250 ppm | Bact. Gas Inhibition at the conc. required to kill protozoa [2]: 43 | Bacterial Viability [4]: Okay | Protozoal Reduction [5]: 96% | Feed Intake [6]: Okay (transient drop, less than 50% at day 2)

Cc1cc(C)c(Nc2nc(Cl)nc(Cl)n2)c(C)c1 [Compound 9]
Mouse Safety Assessment [3]: Good | Conc Required to Kill all Protozoa [1]: 250 ppm | Bact. Gas Inhibition at the conc. required to kill protozoa [2]: 41 | Bacterial Viability [4]: Good | Protozoal Reduction [5]: 88% | Feed Intake [6]: Good

Cc1ccc(Nc2nc(Cl)nc(Cl)n2)cc1C [Compound 10]
Mouse Safety Assessment [3]: Fair (>2 mice sick) | Conc Required to Kill all Protozoa [1]: 250 ppm | Bact. Gas Inhibition at the conc. required to kill protozoa [2]: 55 | Bacterial Viability [4]: Good | Protozoal Reduction [5]: 100% | Feed Intake [6]: Good

Cc1ccc(N(C)c2nc(Cl)nc(Cl)n2)c(C)c1 [Compound 12]
Conc Required to Kill all Protozoa [1]: 250 ppm | Bact. Gas Inhibition at the conc. required to kill protozoa [2]: 35

COc1ccc(Nc2nc(Cl)nc(Cl)n2)c(C)c1 [Compound 13]
Conc Required to Kill all Protozoa [1]: 250 ppm | Bact. Gas Inhibition at the conc. required to kill protozoa [2]: 48

CN(c1ccccc1)c1nc(Cl)nc(Cl)n1 [Compound 14]
Conc Required to Kill all Protozoa [1]: 250 ppm | Bact. Gas Inhibition at the conc. required to kill protozoa [2]: 38

O=[N+]([O-])c1cccc(Nc2nc(Cl)nc(Cl)n2)c1 [Compound 16]
Conc Required to Kill all Protozoa [1]: 250 ppm | Bact. Gas Inhibition at the conc. required to kill protozoa [2]: 47 | Bacterial Viability [4]: Good | Protozoal Reduction [5]: 72% | Feed Intake [6]: Good

Clc1nc(Cl)nc(Nc2ccc(-c3ccccc3)cc2)n1 [Compound 25]
Conc Required to Kill all Protozoa [1]: 150 ppm | Bact. Gas Inhibition at the conc. required to kill protozoa [2]: 53

Cc1ccc(Nc2nc(Cl)nc(Cl)n2)cc1[N+](=O)[O-] [Compound 26]
Conc Required to Kill all Protozoa [1]: 250 ppm | Bact. Gas Inhibition at the conc. required to kill protozoa [2]: 47

COc1ccc(Nc2nc(Cl)nc(Cl)n2)c([N+](=O)[O-])c1 [Compound 31]
Conc Required to Kill all Protozoa [1]: 250 ppm | Bact. Gas Inhibition at the conc. required to kill protozoa [2]: 39

Cc1ccc(N(C)c2nc(Cl)nc(Cl)n2)cc1 [Compound 33]
Conc Required to Kill all Protozoa [1]: 250 ppm | Bact. Gas Inhibition at the conc. required to kill protozoa [2]: 33

Cc1cc(O)c(C(C)(C)C)cc1Nc1nc(Cl)nc(Cl)n1 [Compound 34]
Conc Required to Kill all Protozoa [1]: 250 ppm | Bact. Gas Inhibition at the conc. required to kill protozoa [2]: 81
